pIC50, pKd: −log10 of the molar value. The source made the active and inactive calls. The rule behind the calls is not given here.
Assays:
[1] = Toxicity in ICR mouse assessed as effect on AST level at 10 to 40 mg/kg, iv administered every 2 days and measured after 14 days; format: organism-based; conditions: in vivo, 336 h, dose 10-40 mg/kg, time 14 day
RKO = test: Antiproliferative activity against human RKO cells assessed as cell viability incubated for 72 hrs by MTT assay; format: functional, cell-based
A549 [2] = test: Inhibition of cell invasion in human A549 cells measured for 24 hrs by Transwell assay; format: functional, cell-based; conditions: dose 50-100 nM
HT-29 [3] = test: Induction of apoptosis in human HT-29 cells assessed as late apoptotic cells at 200 nM incubated for 24 hrs by FITC/PI staining based flow cytometry analysis (reference value: 0.20%); format: functional
[4] = Toxicity in BALB/c mouse assessed as kidney damage at 10 to 40 mg/kg, iv measured after 21 days by H and E staining based analysis; format: organism-based; conditions: in vivo, 504 h, dose 10-40 mg/kg, time 21 day
[5] = Toxicity in ICR mouse assessed as effect on BUN level at 10 to 40 mg/kg, iv administered every 2 days and measured after 14 days; format: organism-based; conditions: in vivo, 336 h, dose 10-40 mg/kg, time 14 day
[6] = Toxicity in ICR mouse assessed as effect on hemoglobin level at 10 to 40 mg/kg, iv administered every 2 days and measured after 14 days; format: organism-based; conditions: in vivo, 336 h, dose 10-40 mg/kg, time 14 day
MDA-MB-231 = test: cells; conditions: Homo sapiens, MDA-MB-231, 72 h
Description: Antiproliferative activity against human MDA-MB-231 cells assessed as cell viability incubated for 72 hrs by MTT assay

HT-29 [7] = test: Induction of cell cycle arrest in human HT-29 cells assessed as accumulation of cells at G2 phase at 100 nM incubated for 24 hrs by flow cytometry analysis (reference value: 13 %); format: functional
A549 [8] = test: Inhibition of cell migration in human A549 cells incubated for 24 hrs by wound healing assay; format: functional, cell-based; conditions: dose 50-100 nM
Mitochondrial membrane = test: Induction of mitochondrial membrane potential loss in human HT-29 cells assessed as increase in green fluorescence at 50 to 100 nM incubated for 24 hrs by JC-1 staining based confocal microscopic analysis; format: cell membranes; conditions: dose 50-100 nM
HepG2 = test: Antiproliferative activity against human HepG2 cells assessed as cell viability incubated for 72 hrs by MTT assay; format: functional, cell-based; conditions: HepG2, 72 h
HT-29 [9] = test: Induction of apoptosis in human HT-29 cells assessed as downregulation of Bcl-2 level at 50 to 200 nM incubated for 24 hrs by Western blot analysis; format: functional, cell-based; conditions: dose 50-200 nM
[10] = Toxicity in ICR mouse assessed as effect on CREA level at 10 to 40 mg/kg, iv administered every 2 days and measured after 14 days; format: organism-based; conditions: in vivo, 336 h, dose 10-40 mg/kg, time 14 day
HT-29 [11] = test: Induction of apoptosis in human HT-29 cells assessed as necrotic cells at 50 nM incubated for 24 hrs by FITC/PI staining based flow cytometry analysis (reference value: 0.017 %); format: functional
HT-29 [12] = test: Induction of cell cycle arrest in human HT-29 cells assessed as accumulation of cells at G2 phase at 50 nM incubated for 24 hrs by flow cytometry analysis (reference value: 13 %); format: functional
PC-3 = test: Antiproliferative activity against human PC-3 cells assessed as cell viability incubated for 72 hrs by MTT assay; format: functional, cell-based; conditions: PC-3, 72 h
[13] = Toxicity in BALB/c mouse assessed as lung damage at 10 to 40 mg/kg, iv measured after 21 days by H and E staining based analysis; format: organism-based; conditions: in vivo, 504 h, dose 10-40 mg/kg, time 21 day
HT-29 [14] = test: Antitumor activity against human HT-29 cells xenografted in BALB/c mouse assessed as tumor growth inhibition at 40 mg/kg, iv measured after 21 days; format: functional; conditions: HT-29, 504 h, time 21 day, read-out: TGI
[15] = Clerance in Sprague-Dawley rat at 5 mg/kg, iv measured upto 24 hrs by HPLC-MS analysis; format: ADME, organism-based; conditions: in vivo
HT-29 [16] = test: Induction of cell cycle arrest in human HT-29 cells assessed as accumulation of cells at S phase at 50 nM incubated for 24 hrs by flow cytometry analysis (reference value: 20.8 %); format: functional
[17] = Toxicity in ICR mouse assessed as effect on LDH level at 10 to 40 mg/kg, iv administered every 2 days and measured after 14 days; format: organism-based; conditions: in vivo, 336 h, dose 10-40 mg/kg, time 14 day
HT-29 [18] = test: Antitumor activity against human HT-29 cells xenografted in BALB/c mouse assessed as reduction in Ki67 expression at 10 to 40 mg/kg, iv measured after 21 days by immunohistochemical analysis; format: functional, organism-based; conditions: dose 10-40 mg/kg, time 21.0 day
Tubulin = test: (§1) Inhibition of tubulin polymerization (unknown origin) in presence of GTP by fluorescence plate reader analysis; format: protein-complex assay, Homo sapiens
Tubulin (Homo sapiens) [19] = biological target: T1, Tubulin (Homo sapiens) (UniProt P68371+Q9H4B7+P0DPH7+P68366+Q13509+Q71U36+P04350+Q3ZCM7+P07437+P68363+Q9BQE3+Q6PEY2+Q13885+Q9BVA1+Q9BUF5); test: as §1; format: protein-complex assay; conditions: dose 0.625-10 µM
[20] = Half life in Sprague-Dawley rat at 5 mg/kg, iv measured upto 24 hrs by HPLC-MS analysis; format: ADME, organism-based; conditions: in vivo
HT-29 [21] = test: Induction of cell cycle arrest in human HT-29 cells assessed as accumulation of cells at G1 phase at 200 nM incubated for 24 hrs by flow cytometry analysis (reference value: 67.6%); format: functional
HT-29 [22] = test: Induction of apoptosis in human HT-29 cells assessed as necrotic cells at 200 nM incubated for 24 hrs by FITC/PI staining based flow cytometry analysis (reference value: 0.017 %); format: functional
[23] = AUC (0 to t) in Sprague-Dawley rat at 5 mg/kg, iv measured upto 24 hrs by HPLC-MS analysis; format: ADME, organism-based; conditions: in vivo
HT-29 [24] = test: Inhibition of colony formation in human HT-29 cells; format: functional, cell-based; conditions: dose 25-200 nM
[25] = Toxicity in ICR mouse assessed as effect on monocyte count at 10 to 40 mg/kg, iv administered every 2 days and measured after 14 days; format: organism-based; conditions: in vivo, 336 h, dose 10-40 mg/kg, time 14 day
[26] = Binding affinity to porcine brain tubulin assessed as dissociation constant measured after 20 mins by fluorescence based analysis; parameters: species or system Sus scrofa
HT-29 [27] = test: Induction of apoptosis in human HT-29 cells assessed as late apoptotic cells at 50 nM incubated for 24 hrs by FITC/PI staining based flow cytometry analysis (reference value: 0.20%); format: functional
HT-29 [28] = test: Antitumor activity against human HT-29 cells xenografted in BALB/c mouse assessed as reduction in CD31 expression at 10 to 40 mg/kg, iv measured after 21 days by immunohistochemical analysis; format: functional, organism-based; conditions: dose 10-40 mg/kg, time 21.0 day
[29] = Toxicity in ICR mouse assessed as effect on WBC count at 10 to 40 mg/kg, iv administered every 2 days and measured after 14 days; format: organism-based; conditions: in vivo, 336 h, dose 10-40 mg/kg, time 14 day
HT-29 [30] = test: Induction of apoptosis in human HT-29 cells assessed as upregulation of cleaved caspase 3 level at 50 to 200 nM incubated for 24 hrs by Western blot analysis; format: functional, cell-based; conditions: dose 50-200 nM
HT-29 [31] = test: Induction of ROS accumulation in human HT-29 cells incubated for 24 hrs by DCFH-DA staining based microscopic analysis; format: functional, cell-based; conditions: dose 50-100 nM
Tubulin (Homo sapiens) [32] = biological target: T1, Tubulin (Homo sapiens); test: Inhibition of tubulin polymerization in human HT-29 cells assessed as upregulation of DeY- alpha-tubulin expression 50 to 200 nM incubated for 24 hrs by Western blot analysis; format: cell-based; conditions: dose 50-200 nM

pIC50 (MDA-MB-231): 6.36 | Activity (Mitochondrial membrane): Active | pIC50 (HepG2): 6.72 | pIC50 (PC-3): 6.89 | clearance [15]: 22.2 mL/min/kg | pIC50 (Tubulin): 5.50 | inhibition (Tubulin (Homo sapiens) [19]): Dose-dependent-effect | half-life [20]: 30.6 min | AUC(0-t) at 24 h [23]: 3820 ng·h/mL | pKd [26]: 5.06 | inhibition (Tubulin (Homo sapiens) [32]): Active
SMILES: COc1ccc(N(C)c2nc(/C=C/c3cccc(OC)c3)nc3ccccc23)cc1
Activity [1]: Non-toxic | pIC50 (RKO): 7.00 | inhibition (A549 [2]): Dose-dependent-effect | Activity (HT-29 [3]): 37.3% | Activity [4]: Non-toxic | Activity [5]: Non-toxic | Activity [6]: Non-toxic | Activity (HT-29 [7]): 39.8% | inhibition (A549 [8]): Dose-dependent-effect | Activity (HT-29 [9]): Active | Activity [10]: Non-toxic | Activity (HT-29 [11]): 1.79% | Activity (HT-29 [12]): 17.8% | Activity [13]: Non-toxic | inhibition in vivo at 40 mg/kg (HT-29 [14]): 74.2% | Activity (HT-29 [16]): 16.5% | Activity [17]: Non-toxic | Activity (HT-29 [18]): Active | Activity (HT-29 [21]): 23.5% | Activity (HT-29 [22]): 1.36% | inhibition (HT-29 [24]): Dose-dependent-effect | Activity [25]: Non-toxic | Activity (HT-29 [27]): 13.6% | Activity (HT-29 [28]): Active | Activity [29]: Non-toxic | Activity (HT-29 [30]): Active | Activity (HT-29 [31]): Dose-dependent-effect
